Reference: patent publication US20240217973A1, “IMIDAZOPYRIDINE COMPOUNDS AND USE THEREOF” (MEDSHINE DISCOVERY INC., priority 2021, published 2024)

Key:
HPBMC cells = test: HPBMC experiment: CD69 on anti-human IgM stimulated B cells, flow cytometry; type: cell-based; conditions: B-cell, B cells isolated from PBMC, 48 hours
Description: • 1) Medium: RPMI Medium 1640+1% P/S+10% FBS • 2) MACS buffer: 2% FBS+1 mM EDTA in DPBS • 3) Staining buffer: DPBS+2% FBS • 1.2 Dilution of Compounds and Anti-Human IgM
The initial concentration of the compound to be tested was […], 3-fold dilution, 9 points, and it was added to a 96 well plate after dilution, 50 μL/ well.
The anti-human IgM was diluted according to Table 2 below, and added to the 96 well plate after dilution, 50 μL/well.
• 1) PBMC was removed from a liquid nitrogen tank, then resuscitated and thawed in a 37° C. water bath; • 2) Using a B cell olation kit, B cells were isolated from PBMC according to the instructions, and their viability and number were calculated using a cell counter.
Table 10 Number and viability of PBMC and B cells • 3) The cells were resuspended with 1640 culture medium to a final concentration of 1 M/mL. • 4) The B cells were spread at 0.1 M/ well (100 μL) into a 96-well flat-bottom plate already containing the compound and anti-IgM. • 5) The plate was incubated in a 37° C. CO2 incubator for 48 hours; […]

[1] = Pharmacokinetic evaluation of compounds in rats; type: in vivo; conditions: rat, plasma, SD rats
Description: Experimental purpose: To test the in vivo pharmacokinetic data of compounds in SD rats.
(§1) The compound was mixed with the solvent 5% DMSO/5% Solutol/90% H2O, vortexed and sonicated to prepare a 0.5 mg/mL clear solution. The rats were administered the candidate compound solution intravenously. Whole blood was collected for a certain period of time, and plasma was prepared. The drug concentration was analyzed by LC-MS/MS method, and pharmacokinetic parameters were calculated.
as §1, with “2” for “0.5”, “administered” for “administered the”, “solutions orally.” for “solution intravenously.”

[2] = IV, 1.0 mg/kg (002), 0.85 mg/kg (003B)
[3] = PO, 9.2 mg/kg (002), 8.4 mg/kg (003B)

IC50 (HPBMC cells): 3.6 nM | AUC(0-inf) [1, 2]: 1.32 µM·h | C0 [1, 2]: 3520 nM | Vd [1, 2]: 0.7 L/kg | clearance [1, 2]: 26 mL/min/kg | half-life [1, 2]: 24 min | AUC(0-inf) [1, 3]: 2.58 µM·h | Cmax [1, 3]: 1800 nM | Tmax [1, 3]: 22.8 min | bioavailability [1, 3]: 18.1% | half-life [1, 3]: 107 min
Compound: Nc1nccc2c1n(-c1ccc(Oc3ccccc3)cc1)c(=O)n2[C@@H]1CCCN(C(=O)/C=C/CF)C1 [Compound 002]
